target: T1, Cathepsin G (Homo sapiens, UniProt P08311); assay: IC50 of CTSG protease blockers – biochemical, confirmation, dose response (AID 832)
T1 sequence (P08311 whole entry): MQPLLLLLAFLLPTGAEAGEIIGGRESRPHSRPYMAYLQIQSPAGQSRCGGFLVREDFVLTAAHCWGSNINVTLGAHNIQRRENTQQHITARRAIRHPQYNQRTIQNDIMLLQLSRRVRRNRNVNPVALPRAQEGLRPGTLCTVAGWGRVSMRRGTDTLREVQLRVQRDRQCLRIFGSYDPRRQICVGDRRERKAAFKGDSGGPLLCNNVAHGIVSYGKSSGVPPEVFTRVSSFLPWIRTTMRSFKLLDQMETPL

| SMILES | IC50 [µM] |
| --- | --- |
| COc1ccc(C2C(C(=O)c3cccs3)C(=O)C(=O)N2c2nncs2)cc1 (centres undefined) | > 50 |
| Cc1cc(C)cc(C(=O)n2cnnc2N)c1 | 3.88 |
| Cc1ccc(S(=O)(=O)n2nc(OC(=O)c3cccs3)cc2N)cc1 | 8.07 |
| CCOC(=O)c1c(C)n(C(=O)c2ccco2)c(=O)n1C(=O)c1ccco1 | 12 |
| C#CCOC(=O)c1ccccc1C(=O)n1nnc2ccccc21 | 3.97 |
| CCSc1ccccc1C(=O)n1nnc2ccccc21 | 9.8 |
| O=C(c1ccc2c(c1)OCO2)n1nnc2ccccc21 | 0.957 |
| COc1ccc(C(=O)n2nc(-c3ccc(C)cc3)nc2N)cc1OC | > 50 |
| O=C(c1csc2c1CCCC2)n1cccn1 [1-(4,5,6,7-tetrahydro-1-benzothien-3-ylcarbonyl)-1H-pyrazole] | 3.61 |
| O=C(CCSc1nccn1Cc1ccccc1)N1CCOCC1 [1-(4-morpholinyl)-3-[[1-(phenylmethyl)-2-imidazolyl]thio]-1-propanone] | > 50 |
| CN1CC2(Cc3c1ccc1ccccc31)C(=O)OC(C)(C)OC2=O [2',2',4-trimethylspiro[1,3-dihydrobenzo[f]quinoline-2,5'-1,3-dioxane]-4',6'-dione] | 23.3 |
| O=c1oc(-c2cccc(S(=O)(=O)N3CCOCC3)c2)nc2ccccc12 [2-(3-morpholin-4-ylsulfonylphenyl)-3,1-benzoxazin-4-one] | 4.05 |
| O=c1oc(-c2cccnc2)nc2ccccc12 [2-(3-pyridinyl)-3,1-benzoxazin-4-one] | 2.77 |
| O=c1oc(-c2ccco2)nc2ccccc12 [2-Furan-2-yl-benzo[d][1,3]oxazin-4-one] | 0.793 |
| COC(=O)c1sc(N2C(=O)C(=O)C(C(=O)c3ccc(C)o3)C2c2ccc(F)cc2)nc1C (centres undefined) [2-[2-(4-fluorophenyl)-4-hydroxy-3-[(5-methyl-2-furanyl)-oxomethyl]-5-oxo-2H-pyrrol-1-yl]-4-methyl-5-thiazolecarboxylic acid methyl ester] | > 50 |
| COC(=O)c1ccccc1NC(=O)c1cc2sccc2n1C [2-[(4-Methyl-4H-thieno[3,2-b]pyrrole-5-carbonyl)-amino]-benzoic acid methyl ester] | 30.4 |
| CCN1C(=O)c2ccc(-c3nc4ccccc4c(=O)o3)cc2C1=O [2-ethyl-5-(4-keto-3,1-benzoxazin-2-yl)isoindoline-1,3-quinone] | > 50 |
| CSc1nc(-c2ccco2)nn1C(=O)c1ccco1 [2-furanyl-[3-(2-furanyl)-5-(methylthio)-1,2,4-triazol-1-yl]methanone] | 11.7 |
| Cc1nc2scc(-c3cccs3)c2c(=O)o1 [2-methyl-5-(2-thienyl)thieno[2,3-d][1,3]oxazin-4-one] | > 50 |
| COc1ccc(S(=O)(=O)n2nc(OC(=O)c3cccs3)cc2N)cc1 [2-thiophenecarboxylic acid [5-amino-1-(4-methoxyphenyl)sulfonyl-3-pyrazolyl] ester] | 2.52 |

| SMILES | IC50 [µM] |
| --- | --- |
| COc1ccc2c(c1)CCc1c(C(=O)N3CCc4ccccc4C3)noc1-2 [3,4-dihydro-1H-isoquinolin-2-yl-(7-methoxy-4,5-dihydrobenz[g]indoxazen-3-yl)methanone] | > 50 |
| CC(C)C(CC(=O)N1CCCCC1)C1CCOC(C)(C)C1 (centres undefined) [3-(2,2-dimethyl-4-oxanyl)-4-methyl-1-(1-piperidinyl)-1-pentanone] | > 50 |
| O=C(c1noc2c1CCc1ccccc1-2)N1CCc2ccccc2C1 [3-(3,4-dihydroisoquinolin-2(1H)-ylcarbonyl)-4,5-dihydronaphtho[2,1-d]isoxazole] | 19.6 |
| O=C(c1noc2c1CCc1ccccc1-2)N1CCCc2ccccc21 [3-(3,4-dihydroquinolin-1(2H)-ylcarbonyl)-4,5-dihydronaphtho[2,1-d]isoxazole] | 47.6 |
| O=C(c1noc2c1CCc1ccccc1-2)N1CCOCC1 [3-(morpholin-4-ylcarbonyl)-4,5-dihydronaphtho[2,1-d]isoxazole] | > 50 |
| Cc1ccc(C(=O)n2cnnc2N)cc1C [4-(3,4-dimethylbenzoyl)-4H-1,2,4-triazol-3-amine] | 1.58 |
| COc1ccc(S(=O)(=O)n2nc(OC(=O)c3ccc(C)cc3)cc2N)cc1 [4-Methyl-benzoic acid 5-amino-1-(4-methoxy-benzenesulfonyl)-1H-pyrazol-3-yl ester] | 18.3 |
| CCOC(=O)c1ccc(NC(=O)CS(=O)(=O)c2cn(CC)c3ccccc23)cc1 [4-[[2-(1-ethylindol-3-yl)sulfonylacetyl]amino]benzoic acid ethyl ester] | > 50 |
| Cc1nn(Cc2ccc(Cl)c(Cl)c2)c(C)c1NC(=O)c1cc(-c2ccc3c(c2)OCO3)on1 [5-(1,3-benzodioxol-5-yl)-N-[1-(3,4-dichlorobenzyl)-3,5-dimethyl-1H-pyrazol-4-yl]isoxazole-3-carboxamide] | 18.6 |
| COc1ccc(OC)c(-c2cc(C(=O)Nc3c(C)nn(Cc4ccccc4)c3C)no2)c1 [5-(2,5-dimethoxyphenyl)-N-[3,5-dimethyl-1-(phenylmethyl)-4-pyrazolyl]-3-isoxazolecarboxamide] | 33 |
| COc1ccccc1-c1cc(C(=O)NC(C)c2ccccc2)no1 (centres undefined) [5-(2-methoxyphenyl)-N-(1-phenylethyl)-1,2-oxazole-3-carboxamide] | 21.8 |
| COc1ccccc1-c1cc(C(=O)Nc2cccnc2)no1 [5-(2-methoxyphenyl)-N-(3-pyridinyl)-3-isoxazolecarboxamide] | 43.2 |
| COc1ccccc1-c1cc(C(=O)NCc2ccccc2)no1 [5-(2-methoxyphenyl)-N-(phenylmethyl)-1,2-oxazole-3-carboxamide] | 13.3 |
| COc1ccc(CNC(=O)c2cc(-c3ccc(OC)c(OC)c3)on2)cc1 [5-(3,4-dimethoxyphenyl)-N-(4-methoxybenzyl)isoxazole-3-carboxamide] | > 50 |
| COc1cccc(-c2cc(C(=O)NCCc3ccccc3)no2)c1 [5-(3-methoxyphenyl)-N-(2-phenylethyl)-1,2-oxazole-3-carboxamide] | > 50 |
| Cc1cnc(C(=O)Nc2ccccc2-c2ccc(C)o2)cn1 [5-Methyl-pyrazine-2-carboxylic acid [2-(5-methyl-furan-2-yl)-phenyl]-amide] | > 50 |
| Cc1ccsc1C=c1sc2ncnn2c1=O [5-[(3-methyl-2-thienyl)methylene][1,3]thiazolo[3,2-b][1,2,4]triazol-6(5H)-one] | 4.66 |
| Cn1cnnc1SCc1ccc(C(=O)n2ncc(C#N)c2N)cc1 [5-amino-1-[4-[(4-methyl-1,2,4-triazol-3-yl)sulfanylmethyl]benzoyl]pyrazole-4-carbonitrile] | 3.86 |
| Cc1cccc(-n2nnc(C(=O)Nc3ccc(F)cc3)c2N)c1 [5-amino-N-(4-fluorophenyl)-1-(3-methylphenyl)-1H-1,2,3-triazole-4-carboxamide] | > 50 |
| O=C(NCc1cccs1)c1cc(-c2cccs2)on1 [5-thien-2-yl-N-(thien-2-ylmethyl)isoxazole-3-carboxamide] | 15.2 |

| SMILES | IC50 [µM] |
| --- | --- |
| COc1cc2nc(-c3cccs3)oc(=O)c2cc1OC [6,7-dimethoxy-2-(2-thienyl)-3,1-benzoxazin-4-one] | > 50 |
| COCC(C)NC(=O)c1noc2c1CCc1cc(OC)ccc1-2 (centres undefined) [7-methoxy-N-(1-methoxypropan-2-yl)-4,5-dihydrobenzo[g][1,2]benzoxazole-3-carboxamide] | 6.4 |
| COCCNC(=O)c1noc2c1CCc1cc(OC)ccc1-2 [7-methoxy-N-(2-methoxyethyl)-4,5-dihydrobenz[g]indoxazene-3-carboxamide] | 4.36 |
| COc1ccc2c(c1)CCc1c(C(=O)NCCN3CCOCC3)noc1-2 [7-methoxy-N-(2-morpholin-4-ylethyl)-4,5-dihydrobenzo[g][1,2]benzoxazole-3-carboxamide] | 5.82 |
| COc1ccc2c(c1)CCc1c(C(=O)NCc3cccnc3)noc1-2 [7-methoxy-N-(3-pyridinylmethyl)-4,5-dihydrobenzo[g][1,2]benzoxazole-3-carboxamide] | 1.39 |
| COc1ccc2c(c1)CCc1c(C(=O)Nc3ccn(Cc4ccc(C)cc4)n3)noc1-2 [7-methoxy-N-[1-(4-methylbenzyl)-1H-pyrazol-3-yl]-4,5-dihydronaphtho[2,1-d]isoxazole-3-carboxamide] | 2.91 |
| COc1ccc(C(=O)n2nc(-c3ccco3)nc2SC)cc1OC [(3,4-dimethoxyphenyl)-[3-(2-furanyl)-5-(methylthio)-1,2,4-triazol-1-yl]methanone] | 22 |
| Nc1nncn1C(=O)c1cccs1 [(3-Amino-[1,2,4]triazol-4-yl)-thiophen-2-yl-methanone] | 28.4 |
| COc1ccc(C(=O)n2cnc(N)n2)cc1 [(3-amino-1,2,4-triazol-1-yl)-(4-methoxyphenyl)methanone] | 1.31 |
| COc1ccc(C(=O)n2ccc(C)n2)cc1Br [(3-bromanyl-4-methoxy-phenyl)-(3-methylpyrazol-1-yl)methanone] | 41.5 |
| Nc1nc(C(=O)N2CCOCC2)nn1C(=O)c1ccc(Cl)cc1 [(5-azanyl-3-morpholin-4-ylcarbonyl-1,2,4-triazol-1-yl)-(4-chlorophenyl)methanone] | 4.51 |
| COc1ccc(S(=O)(=O)n2nc(OC(=O)c3ccccc3)cc2N)cc1 [Benzoic acid 5-amino-1-(4-methoxy-benzenesulfonyl)-1H-pyrazol-3-yl ester] | 20.8 |
| CCOC(=O)c1ccc(/N=C/c2nc(-c3ccccc3)oc2OC(C)=O)cc1 [MLS000027596] | 21.6 |
| O=C1CS/C(=N\c2ccc(O)cc2)N1c1ccc(O)cc1 [MLS000027731] | > 50 |
| CC[C@@H](C)[C@H](NC(=O)OC(C)(C)C)c1nnc(S(=O)(=O)Cc2cc(C)ccc2C)o1 [MLS000042033] | 20.2 |
| Cc1ccc(NC(=O)Cc2nn(C)c(=O)c3ccccc23)cc1F [MLS000047015] | > 50 |
| CC(=O)Nc1cccc(-c2nc3ccccc3c(=O)o2)c1 [MLS000061720] | 2.17 |
| O=C(c1csc2ccccc12)n1cccn1 [MLS000065687] | 4.33 |
| COc1ccc(-c2cc(C(=O)Nc3c(C)nn(Cc4ccccc4Cl)c3C)no2)cc1 [MLS000087058] | 44.4 |
